Test results taken from PubChem BioAssay AID1963862 (Molecular Pharmacology Branch, DTP, NCI, 2024).

System: KRAS patient-derived spheroids with HUVEC/MSC, viability
Experiment: Anticancer human tumor 941728-121-R-J1-PDC patient-derived lung adenocarcinoma cell line growth inhibition [KRAS2]
Conditions: for IC50: curve of first compound; for viability, T/C: stronger effect = lower value
Summary of the method: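 Combination screen of spheroid viability in tumor-cell co-cultures with endothelial (HUVEC) and mesenchymal stem cell stroma. Each agent was tested in half-log dilutions, topping at clinical Cmax or at 10 microM without a known Cmax.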

[1] = second compound 0.1 µM, first compound 0.0316 µM
[2] = second compound 0.1 µM, first compound 0.1 µM
[3] = second compound 0.1 µM, first compound 0.316 µM
[4] = second compound 0.1 µM, first compound 1 µM
[5] = second compound 0.1 µM, first compound 3.16 µM
[6] = second compound 0.1 µM, first compound 10 µM
[7] = second compound 0.316 µM, first compound 0.0316 µM
[8] = second compound 0.316 µM, first compound 0.1 µM
[9] = second compound 0.316 µM, first compound 0.316 µM
[10] = second compound 0.316 µM, first compound 1 µM
[11] = second compound 0.316 µM, first compound 3.16 µM
[12] = second compound 0.316 µM, first compound 10 µM
[13] = second compound 1 µM, first compound 0.0316 µM
[14] = second compound 1 µM, first compound 0.1 µM
[15] = second compound 1 µM, first compound 0.316 µM
[16] = second compound 1 µM, first compound 1 µM
[17] = second compound 1 µM, first compound 3.16 µM
[18] = second compound 1 µM, first compound 10 µM
[19] = second compound 3.16 µM, first compound 0.0316 µM
[20] = second compound 3.16 µM, first compound 0.1 µM
[21] = second compound 3.16 µM, first compound 0.316 µM
[22] = second compound 3.16 µM, first compound 1 µM
[23] = second compound 3.16 µM, first compound 3.16 µM
[24] = second compound 3.16 µM, first compound 10 µM
[25] = second compound 10 µM, first compound 0.0316 µM
[26] = second compound 10 µM, first compound 0.1 µM
[27] = second compound 10 µM, first compound 0.316 µM
[28] = second compound 10 µM, first compound 1 µM
[29] = second compound 10 µM, first compound 3.16 µM
[30] = second compound 10 µM, first compound 10 µM
[31] = second compound 0.1 µM, first compound 0.000316 µM
[32] = second compound 0.1 µM, first compound 0.001 µM
[33] = second compound 0.1 µM, first compound 0.00316 µM
[34] = second compound 0.1 µM, first compound 0.01 µM
[35] = second compound 0.316 µM, first compound 0.000316 µM
[36] = second compound 0.316 µM, first compound 0.001 µM
[37] = second compound 0.316 µM, first compound 0.00316 µM
[38] = second compound 0.316 µM, first compound 0.01 µM
[39] = second compound 1 µM, first compound 0.000316 µM
[40] = second compound 1 µM, first compound 0.001 µM
[41] = second compound 1 µM, first compound 0.00316 µM
[42] = second compound 1 µM, first compound 0.01 µM
[43] = second compound 3.16 µM, first compound 0.000316 µM
[44] = second compound 3.16 µM, first compound 0.001 µM
[45] = second compound 3.16 µM, first compound 0.00316 µM
[46] = second compound 3.16 µM, first compound 0.01 µM
[47] = second compound 10 µM, first compound 0.000316 µM
[48] = second compound 10 µM, first compound 0.001 µM
[49] = second compound 10 µM, first compound 0.00316 µM
[50] = second compound 10 µM, first compound 0.01 µM
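Further: spheroids exposed to agents for seven days before readout.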

Row | Structure (SMILES) | IC50 (second compound 0.1 µM) [nM] | IC50 (second compound 0.316 µM) [nM] | IC50 (second compound 1 µM) [nM] | IC50 (second compound 3.16 µM) [nM] | IC50 (second compound 10 µM) [nM] | viability, T/C [1] [%] | viability, T/C [2] [%] | viability, T/C [3] [%] | viability, T/C [4] [%] | viability, T/C [7] [%] | viability, T/C [8] [%] | viability, T/C [9] [%] | viability, T/C [10] [%] | viability, T/C [13] [%] | viability, T/C [14] [%] | viability, T/C [15] [%] | viability, T/C [19] [%] | viability, T/C [20] [%] | viability, T/C [25] [%] | viability, T/C [26] [%] | other results
1 | CC(C)NCC(C(=O)N1CCN(c2ncnc3c2C(C)CC3O)CC1)c1ccc(Cl)cc1 (stereo not given) + CC1OCC2(CCN(c3cnc(Sc4ccnc(N)c4Cl)c(N)n3)CC2)C1N | < 31.6 | < 31.6 | < 31.6 | < 31.6 | < 31.6 | 38.3 | 40.1 | 29.9 | 24.9 | 34 | 31.9 | 25.3 | 20.9 | 26.2 | 26.8 | 23.7 | 25.8 | 22.1 | 19.1 | 17.9 | viability, T/C [5]: 19.1%; viability, T/C [6]: 10.4%; viability, T/C [11]: 15.1%; viability, T/C [12]: 8.83%; viability, T/C [16]: 16.7%; viability, T/C [17]: 12.8%; viability, T/C [18]: 4.1%; viability, T/C [21]: 20.8%; viability, T/C [22]: 14.3%; viability, T/C [23]: 10.7%; viability, T/C [24]: 3.56%; viability, T/C [27]: 17.2%; viability, T/C [28]: 11.2%; viability, T/C [29]: 4.83%; viability, T/C [30]: 1.91%
2 | CC(C)n1nc(-c2ccc3oc(N)nc3c2)c2c(N)ncnc21 + CC1OCC2(CCN(c3cnc(Sc4ccnc(N)c4Cl)c(N)n3)CC2)C1N | < 0.316 | < 0.316 | < 0.316 | < 0.316 | < 0.316 | 8.84 | 6.47 | – | – | 9.93 | 5.71 | – | – | 8.27 | 5.69 | – | 3.72 | 3.13 | 3.77 | 1.91 | viability, T/C [31]: 40.7%; viability, T/C [32]: 30.6%; viability, T/C [33]: 17.2%; viability, T/C [34]: 12.1%; viability, T/C [35]: 31%; viability, T/C [36]: 24.8%; viability, T/C [37]: 16.8%; viability, T/C [38]: 11.5%; viability, T/C [39]: 25.2%; viability, T/C [40]: 20.3%; viability, T/C [41]: 12%; viability, T/C [42]: 8.84%; viability, T/C [43]: 17.6%; viability, T/C [44]: 16.4%; viability, T/C [45]: 9.88%; viability, T/C [46]: 5.58%; viability, T/C [47]: 11.4%; viability, T/C [48]: 11.2%; viability, T/C [49]: 6.08%; viability, T/C [50]: 4.41%
3 | CC1(C)CCC(CN2CCN(c3ccc(C(=O)NS(=O)(=O)c4ccc(NCC5CCOCC5)c([N+](=O)[O-])c4)c(Oc4cnc5[nH]ccc5c4)c3)CC2)=C(c2ccc(Cl)cc2)C1 + CC1OCC2(CCN(c3cnc(Sc4ccnc(N)c4Cl)c(N)n3)CC2)C1N | < 31.6 | < 31.6 | < 31.6 | < 31.6 | < 31.6 | 38.4 | 30.5 | 32.1 | 31.2 | 32.1 | 24.3 | 29 | 34.3 | 29 | 26.9 | 26.1 | 28.4 | 24.7 | 20.1 | 23.8 | viability, T/C [5]: 6.63%; viability, T/C [6]: 2.32%; viability, T/C [11]: 5.9%; viability, T/C [12]: 1.62%; viability, T/C [16]: 27.3%; viability, T/C [17]: 5.85%; viability, T/C [18]: 2.94%; viability, T/C [21]: 23.7%; viability, T/C [22]: 20.8%; viability, T/C [23]: 5.87%; viability, T/C [24]: 1.91%; viability, T/C [27]: 23.2%; viability, T/C [28]: 19.2%; viability, T/C [29]: 3.98%; viability, T/C [30]: 0.4%
4 | CCN1CCN(Cc2ccc(Nc3ncc(F)c(-c4cc(F)c5nc(C)n(C(C)C)c5c4)n3)nc2)CC1 + CC1OCC2(CCN(c3cnc(Sc4ccnc(N)c4Cl)c(N)n3)CC2)C1N | < 3.16 | < 3.16 | < 3.16 | < 3.16 | < 3.16 | 36.2 | 35.9 | 37.5 | 44.4 | 30.5 | 31.7 | 24.3 | 26 | 29.1 | 28.5 | 23.1 | 24.2 | 24.4 | 19.6 | 15.6 | viability, T/C [33]: 47.5%; viability, T/C [34]: 40.5%; viability, T/C [37]: 35.3%; viability, T/C [38]: 31.2%; viability, T/C [41]: 32.5%; viability, T/C [42]: 29.4%; viability, T/C [16]: 17.5%; viability, T/C [45]: 25.8%; viability, T/C [46]: 25.4%; viability, T/C [21]: 16.5%; viability, T/C [22]: 13.5%; viability, T/C [49]: 22.9%; viability, T/C [50]: 22.7%; viability, T/C [27]: 9.09%; viability, T/C [28]: 9.79%
5 | COc1cc2nccc(Oc3ccc(NC(=O)C4(C(=O)Nc5ccc(F)cc5)CC4)cc3)c2cc1OC + CC1OCC2(CCN(c3cnc(Sc4ccnc(N)c4Cl)c(N)n3)CC2)C1N | < 31.6 | < 31.6 | < 31.6 | < 31.6 | < 31.6 | 48.9 | 40 | 31.5 | 29.4 | 28.8 | 26.2 | 29 | 27.8 | 25.3 | 25.9 | 24.1 | 25.3 | 20.1 | 20.7 | 14.8 | viability, T/C [5]: 34.2%; viability, T/C [6]: 26.9%; viability, T/C [11]: 14.6%; viability, T/C [12]: 16.6%; viability, T/C [16]: 15.5%; viability, T/C [17]: 8.65%; viability, T/C [18]: 7.11%; viability, T/C [21]: 11.7%; viability, T/C [22]: 12%; viability, T/C [23]: 7.91%; viability, T/C [24]: 4.69%; viability, T/C [27]: 12.2%; viability, T/C [28]: 8.99%; viability, T/C [29]: 4.63%; viability, T/C [30]: 4.36%
6 | Cn1ncnc1[C@H]1c2n[nH]c(=O)c3cc(F)cc(c23)N[C@@H]1c1ccc(F)cc1 + CC1OCC2(CCN(c3cnc(Sc4ccnc(N)c4Cl)c(N)n3)CC2)C1N | 0.334 | < 0.316 | < 0.316 | < 0.316 | < 0.316 | 44.2 | 46.5 | – | – | 28.1 | 28.1 | – | – | 19.2 | 26.4 | – | 14.4 | 19.3 | 18.3 | 14.7 | viability, T/C [31]: 49.5%; viability, T/C [32]: 50%; viability, T/C [33]: 43.2%; viability, T/C [34]: 44.7%; viability, T/C [35]: 37.7%; viability, T/C [36]: 28.5%; viability, T/C [37]: 26.1%; viability, T/C [38]: 32.7%; viability, T/C [39]: 28.7%; viability, T/C [40]: 25.9%; viability, T/C [41]: 22.2%; viability, T/C [42]: 20.6%; viability, T/C [43]: 26.6%; viability, T/C [44]: 24.8%; viability, T/C [45]: 25.3%; viability, T/C [46]: 20%; viability, T/C [47]: 23.8%; viability, T/C [48]: 21.5%; viability, T/C [49]: 19.9%; viability, T/C [50]: 18.9%
